Data as given in patent US11220668B2, “Method for reducing the trisulfide level in proteins” (Merck Patent GmbH, priority 2016, dated 2022).

System: Recombinant CHO cells expressing an IgG1
Test: Fed-batch process with SSC feed; relative quantification of trisulfide linked peptides in IgG by LC-MS peptide mapping
Type: cell-based
Conditions: for mean reduction of trisulfide, LC-HC linked peptides: SSC feed (15 mM in main feed) compared to control condition with cysteine in separate feed; for mean reduction of trisulfide, linkage between cysteine 259 and cysteine 319 in the heavy chain: SSC feed compared to control condition with cysteine in separate feed
Description: Recombinant CHO cells expressing an IgG1 were grown in fully chemically defined basal media (Cellvento® CHO 220) containing 1.5 mM cysteine. At days 3, 5, 7, 10, 14; feed(s) containing either cysteine or S-sulfocysteine were added.
For the control condition, the main feed included vitamins, trace elements and amino acid except cysteine because of the low stability of this amino acid. 150 mM of cysteine was dissolved in a separate feed at pH 11. The main feed was added at 3%, 6%, 6%, 6% and 6% (v/v) whereas cysteine was added at 0.3%, 0.6%, 0.6%, 0.6% and 0.6% on day 3, 5, 7, 10 and 14, respectively.
For the SSC condition, the main feed included the same vitamins, trace elements and amino acids and was further supplemented with 15 mM of S-sulfocysteine di-sodium salt. The main feed was added 3%, 6%, 6%, 6% and 6% (v/v) day 3, 5, 7, 10 and 14 respectively, resulting in the same amount of cysteine source when compared to the control condition. Glucose was monitored on a daily basis for both conditions and adjusted to 6 g/L using a 400 g/L solution.
The process was performed in 1.2 L bioreactors at 37° C., pH 7.0, 50% dissolved oxygen, agitation 140 rpm.
Samples were taken from the bioreactors for the trisulfide analysis on day 13 and day 18. After sampling, cell culture supernatant was centrifuged 5 min at 1500 rpm, the IgG concentration was quantified using an automatic turbidometric method (Cedex bioHT) and frozen for further processing.
IgG were purified from the frozen samples using protein A binding (Phytips method) and were eluted in 200 mM NAH2PO4; 140 mM NaCl and 96 mM Tris HCl and quantified again.
First, the free cysteines in the samples were alkylated by addition of N-ethylmaleiimide (10 mM solution in 0.1 M Na acetate buffer pH 5.0) for 30 min in the dark.
For digestion with Lys-C, 55 μL digestion buffer (8 M urea, 0.1 M Tris, pH 7) and 15 μL Lys-C enzyme (Promega, V1671) were added and the samples were incubated for 4 hours at 37° C. Subsequently, the samples were diluted to 1 M urea by addition of […] and were digested by addition of 12 μL trypsin over night at 37° C. The final antibody concentration was 50 mg/L. For the analysis of the disulfide and trisulfide bonds, the sample was treated with 10% formic acid (4.4 μL) to stop the digestion and analyzed by LC-MS.
The peptide mixture obtained was injected and separated using reversed phase HPLC (RSLC3000 nano LC, Thermo Scientific Dionex, Idstein, Germany). A nanoLC column (Acquity UPLC M-Class HSS T3, 1.8 μm, 75 μm×150 mm, Waters) with a cartridge (PM100, C18, 5 μm, 0.3×5 mm, Thermo Scientific Dionex, Idstein, Germany) was used for preconcentration and separation of the sample. Blank runs and column wash runs were performed within consecutive sample runs. […]

For `N[C@@H](CSS(=O)(=O)[O-])C(=O)[O-].[Na+].[Na+]` [SSC, S-sulfocysteine di-sodium salt], which “mean reduction of trisulfide, LC-HC linked peptides” value (day 13 of fed-batch) is on record?
The value was 93.3%.

And the “mean reduction of trisulfide, linkage between cysteine 259 and cysteine 319 in the heavy chain” value (day 13 of fed-batch)?
The value was 46.7%.

And the “mean reduction of trisulfide, LC-HC linked peptides” value (day 18 of fed-batch)?
The value was 92.4%.

What about the “mean reduction of trisulfide, linkage between cysteine 259 and cysteine 319 in the heavy chain” value (day 18 of fed-batch) of the same compound?
Its value is 25.9%.
